Experimental findings from patent publication US8846692B2, “Carboxylic acid derivatives having a 2,5-substituted oxazolopyrimidine ring” (Sanofi, priority 2010, dated 2014) are described below.

The target of the experiment is T1, human Edg-1 receptor (Homo sapiens, UniProt P21453).
T1 construct: expressed in transfected cells; membrane preparation
Nature of the experiment: GTP-γ-S assay using human Edg-1 receptors (scintillation proximity assay, CHO Flp-In cell membrane preparation). The class given is biochemical. The conditions noted are these: test compound at 10 μM, 10 μM S1P high control regarded as 100% activation, triplicate; for activation at 10 µM: read-out: % Activation (Edg-1 receptor activation in percent of the activation by 10 μM S1P). From the text:
Determination of the Pharmacological Activity A) GTP-γ-S Assay Using Human Edg-1 Receptors
In order to determine the Edg-1 receptor activation by the compounds of the invention, a GTP-γ-S (guanosine 5′-[γ-thio]triphosphate) assay for G-protein coupled receptor binding based on the scintillation proximity assay principle was used, employing a cell membrane preparation from a CHO Flp-In cell line which constitutively overexpresses the human Edg-1 receptor.
A membrane preparation was obtained by standard methods from the afore-described CHO Flp-In cell line constitutively overexpressing the human Edg-1 receptor. Briefly, the cryopreserved cells were taken in culture and grown until confluency in T175 cell culture flasks (Becton Dickinson, cat. no. 35 5001). Cell culture was stopped by washing with calcium-free phosphate-buffered saline (PBS; Gibco, cat. no. 14190), and cells were harvested with a rubber-policeman in 4° C. cold and calcium-free PBS supplemented with a protease inhibitor cocktail (complete protease inhibitor; Roche, cat. no. 1697498; 1 tablet per 50 ml) and subsequently centrifuged at 4° C. for 15 min at 1100×g (Heraeus Minifuge T). For cell lysis, the pellet was resuspended in a 4° C. cold hypotonic buffer consisting of 5 mM HEPES (Sigma-Aldrich, cat. no. H-0981), 1 mM EDTA (disodium salt; Merck, cat. No. 8418) supplemented with protease inhibitor cocktail (as above) in which cells were stored for another 15 min on ice. After lysis, cells were centrifuged at 4° C. for 10 min at 400×g (Heraeus Minifuge T). The pellet was disrupted in a Dounce homogenizer, diluted with the supernatant of the previous centrifugation and subsequently centrifuged at 4° C. for 10 min at 500×g (Heraeus Minifuge T) in order to separate nuclei and still intact cells from the membranes mainly present in the supernatant. The supernatant was then diluted in hypotonic buffer and centrifuged (Beckmann, Avanti J251) at approximately 18600×g for 2 h at 4° C. After centrifugation, the membrane pellet was resuspended in a storing buffer consisting of 20 mM HEPES; 150 mM NaCl (Merck, cat. no. 6400), 1 mM EDTA (as above) supplemented with protease inhibitor cocktail (as above). The membrane preparation was aliquoted and stored at −80° C. Protein concentration of the membrane preparation was determined in a sample by means of a commercial protein assay (Bio-Rad, DC Protein Assay, cat. nos. 500-0113, 500-0114, 500-0115).
The Edg-1 membrane preparation obtained in (b) was employed in a commercially available scintillation proximity assay (SPA) kit for G-protein coupled receptor binding from Amersham Biosciences/GE Healthcare (code RPNQ0210), in which ligand-induced binding of ^35S-radiolabled GTP-γ-S to the receptor-containing membrane, which is bound to scintillation beads, stimulates the emission of light and allows to quantify the in vitro activity of the Edg-1 agonistic compound. The assay was performed on a 96-well plate scale substantially according to the manufacturer's instructions. Before start of the experiments, scintillation beads were suspended in a reconstitution buffer consisting of Tris-HCl (pH 7.4) supplemented with 0.1% (w/v) sodium azide and subsequently diluted on ice with assay buffer (consisting of 20 mM HEPES, 100 mM NaCl, 1 mM EDTA (as above), 1 mM dithiothreitol (DTT), adjusted to pH 7.4) to a final bead concentration of 30 mg/ml.
Wells were charged with 10 μl of the specified assay buffer, 10 μl of a 100 μM guanosine diphosphate (GDP) solution, and 10 μl of a solution of the test compound in assay buffer/dimethylsulfoxide resulting in a final concentration of the test compound of 10 μM. For the high controls, 10 μl of a solution of sphingosine-1-phosphate (S1P; Sigma, cat. no. S-9666), resulting in a final S1P concentration of 10 μM, and for the low controls 10 μl of assay buffer, was added into respective wells instead of the solution of the test compound. All wells contained equivalent amounts of dimethylsulfoxide. […]
In general terms: SPA uses beads or plates that emit light when radiolabelled molecules are held near them.

SMILES strings stand for the structures.

T1 sequence (P21453 whole entry): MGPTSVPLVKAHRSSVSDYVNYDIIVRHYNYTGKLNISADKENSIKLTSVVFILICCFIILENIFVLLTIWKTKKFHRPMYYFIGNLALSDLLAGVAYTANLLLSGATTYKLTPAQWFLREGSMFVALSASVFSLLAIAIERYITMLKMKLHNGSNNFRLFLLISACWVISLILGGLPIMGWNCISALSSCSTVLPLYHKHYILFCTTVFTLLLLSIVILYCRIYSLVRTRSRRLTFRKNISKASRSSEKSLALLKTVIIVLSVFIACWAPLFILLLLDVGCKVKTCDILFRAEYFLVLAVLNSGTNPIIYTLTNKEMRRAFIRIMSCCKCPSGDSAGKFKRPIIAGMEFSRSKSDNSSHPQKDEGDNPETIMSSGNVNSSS

For `Cc1cc(-c2nc3cnc(Oc4ccccc4)nc3o2)cc(C)c1OCC(=O)O` [Example 1, [2,6-Dimethyl-4-(5-phenoxy-oxazolo[5,4-d]pyrimidin-2-yl)-phenoxy]-acetic acid], the activation at 10 µM amounted to 116%.

`O=C(O)/C=C/c1ccc(-c2nc3cnc(Oc4ccccc4F)nc3o2)cc1` [Example 2, (E)-3-{4-[5-(2-Fluoro-phenoxy)-oxazolo[5,4-d]pyrimidin-2-yl]-phenyl}-acrylic acid]: the activation at 10 µM stood at 83%.

For the molecule `Cc1cc(-c2nc3cnc(Oc4ccc(F)cc4F)nc3o2)cc(C)c1OCC(=O)O` [Example 3, {4-[5-(2,4-difluoro-phenoxy)-oxazolo[5,4-d]pyrimidin-2-yl]-2,6-dimethyl-phenoxy}-acetic acid], the activation at 10 µM amounted to 95%.

Turning to `Cc1cc(-c2nc3cnc(Oc4cc(F)ccc4F)nc3o2)cc(C)c1OCC(=O)O` [Example 4, {4-[5-(2,5-difluoro-phenoxy)-oxazolo[5,4-d]pyrimidin-2-yl]-2,6-dimethyl-phenoxy}-acetic acid], the activation at 10 µM worked out at 103%.

For the molecule `Cc1ccc(Oc2ncc3nc(-c4cc(C)c(OCC(=O)O)c(C)c4)oc3n2)c(F)c1` [Example 5, {4-[5-(2-fluoro-4-methyl-phenoxy)-oxazolo[5,4-d]pyrimidin-2-yl]-2,6-dimethyl-phenoxy}-acetic acid], the activation at 10 µM was 101%.

Take `Cc1cc(-c2nc3cnc(Oc4ccccc4F)nc3o2)cc(C)c1OCC(=O)O` [Example 6, {4-[5-(2-fluoro-phenoxy)-oxazolo[5,4-d]pyrimidin-2-yl]-2,6-dimethyl-phenoxy}-acetic acid]: the activation at 10 µM is 110%.

As for `Cc1cc(-c2nc3cnc(Oc4ccccc4F)nc3o2)cc(C)c1OC(C)C(=O)O` (stereo not drawn) [Example 7, 2-{4-[5-(2-fluoro-phenoxy)-oxazolo[5,4-d]pyrimidin-2-yl]-2,6-dimethyl-phenoxy}-propionic acid], the activation at 10 µM was 84%.

In the case of `Cc1cc(-c2nc3cnc(Oc4cccc(Cl)c4)nc3o2)cc(C)c1OCC(=O)O` [Example 8, {4-[5-(3-chloro-phenoxy)-oxazolo[5,4-d]pyrimidin-2-yl]-2,6-dimethyl-phenoxy}-acetic acid], the “% Activation (Edg-1 receptor activation in percent of the activation by 10 μM S1P)” value was found to be 74%.

Consider `Cc1ccc(Oc2ncc3nc(-c4cc(C)c(OCC(=O)O)c(C)c4)oc3n2)cc1F` [Example 9, {4-[5-(3-fluoro-4-methyl-phenoxy)-oxazolo[5,4-d]pyrimidin-2-yl]-2,6-dimethyl-phenoxy}-acetic acid], for which the activation at 10 µM was found to be 87%.

Regarding `Cc1ccc(F)cc1Oc1ncc2nc(-c3cc(C)c(OCC(=O)O)c(C)c3)oc2n1` [Example 10, {4-[5-(5-fluoro-2-methyl-phenoxy)-oxazolo[5,4-d]pyrimidin-2-yl]-2,6-dimethyl-phenoxy}-acetic acid], the activation at 10 µM amounted to 112%.

On to `Cc1cc(-c2nc3cnc(Oc4ccc(Cl)cc4)nc3o2)cc(C)c1OCC(=O)O` [Example 11, {4-[5-(4-chloro-phenoxy)-oxazolo[5,4-d]pyrimidin-2-yl]-2,6-dimethyl-phenoxy}-acetic acid], for which the activation at 10 µM worked out at 105%.

Regarding `Cc1cc(-c2nc3cnc(OC4CCCC4)nc3o2)cc(C)c1OCC(=O)O` [Example 12, [4-(5-cyclopentyloxy-oxazolo[5,4-d]pyrimidin-2-yl)-2,6-dimethyl-phenoxy]-acetic acid], the activation at 10 µM amounted to 46%.
